This passage reports IC50 results from patent US9624213B2 (Plexxikon Inc., priority 2011, dated 2017).

Structures are written as SMILES.

For one test, the system named is COLO205. Put plainly: COLO205 cell growth inhibitory activity (ATPlite). It counts as cell-based. Conditions: Homo sapiens, COLO 205, 72 h; COLO205 cells, growth inhibition, 3 days. As to the method: (§1) Compounds are assessed in a variety of cell based assays. For example human cell lines with B-Raf V600E mutation (A375 melanoma, SKMEL3 melanoma, and COLO205 colon adenocarcinoma), as well as tumorigenic cell lines with wild-type B-RAF (SW620 colon adenocarcinoma) or with Ras mutations (SKMEL2 melanoma and IPC298 melanoma). Similar assays may be used to assess additional tumorigenic cell lines with Ras mutations, including, but not limited to, M202, M207, M243, M244, M296, S117, HCT116, HCT15, DLD1, MiaPaCa, A549, NCI-H23, NCI-H460, HOP62, MDA-MB231, Hs-578T, HL60, MOLT-4, and CCRF-CEM.
(§2) On day 1, cells are counted, then centrifuged in a conical tube for 5 minutes at 1000 rpm. The supernatant is removed and cells are re-suspended as follows: • SW620 (ATCC catalog #CCL-27): resuspend in Leibovitz's L-15 medium, 2 mM L-glutamine, 10% fetal bovine serum to 6×10^4 cells/mL. • A375 (ATCC catalog #CRL-1619): resuspend in Dulbecco's modified Eagle's medium, 4 mM L-glutamine, 4.5 g/L D-glucose, 10% fetal bovine serum to 6×10^4 cells/mL. • COLO205 (ATCC catalog #CCL-222): resuspend in RPMI 1640, 2 mM L-glutamine, 1.5 g/L sodium bicarbonate, 4.5 g/L D-glucose, 10 mM HEPES, 1.0 mM sodium pyruvate, 10% fetal bovine serum to 6×10^4 cells/mL. • SKMEL2 (ATCC catalog #HTB-68): resuspend in Minimum Eagle essential medium, 2 mM L-glutamine, 1.5 g/L sodium bicarbonate, 0.1 mM non-essential amino acids, 1.0 mM sodium pyruvate, 10% fetal bovine serum to 6×10^4 cells/mL. • SKMEL3 (ATCC catalog #HTB-69): resuspend in McCoy's 5A medium, 1.5 mM L-glutamine, 15% fetal bovine serum to 6×10^4 cells/mL. • IPC298 (DSMZ catalog #ACC 251): resuspend in RPMI 1640, 2 mM L-glutamine, 10% fetal bovine serum to 6×10^4 cells/mL.
(§3) The cells are plated, 50 μL in each well of a 96-well dish (Corning 3610) and incubated at 37° C. in 5% CO2 overnight, cells plated to a final concentration of cells as follows: • SW620: 5,000 cells per well. • A375: 2,000 cells per well. • COLO205: 2,000 cells per well. • SKMEL2: 2,000 cells per well. • SKMEL3: 3,000 cells per well. • IPC298: 2,000 cells per well.
(§4) On day 2, compound at a maximum concentration of 5 mM is serially diluted 1:3 (e.g. 10 μL with 30 μL dimethyl sulfoxide) for a total of 8 point titration with DMSO as a control. A 1 μL aliquot of each dilution point and control is added to 249 μL growth media and 50 μL is added to a well containing cells, providing 10 μM compound at the maximum concentration point. The cells are incubated for 3 days at 37° C. in 5% CO2.
(§5) On day 5, ATPlite 1 step Luminescence Assay System (Perkin Elmer #6016739) is brought to room temperature along with the cell cultures. ATPlite is added 25 μL to each well, shake for 2 minutes, and the cells are incubated at room temperature for 10 minutes, then luminescence is read on Satire reader. The measured luminescence correlates directly with cell number, such that the reading as a function of compound concentration is used to determine the IC50 value.
On the technique in general: Cellular ATP, detected with luciferase, serves as a proxy for viable cell number.

Another test has as its system A375. Put plainly: A375_P-ERK / A375 cell activity. It counts as cell-based. Conditions: Homo sapiens, A-375; A375 cells (A375_P-ERK). How it is done:
as §1, §2, §3, §4, §5

Usually IC50 stands for the point on the concentration scale where inhibition reaches its midpoint. The low end stands for inhibition by little substance, the high end for a need for much substance.

Take `CCN(C)S(=O)(=O)Nc1ccc(F)c(C(=O)c2c[nH]c3ncc(-c4ccc(C(=O)NC5CC5)nc4)cc23)c1F` [Compound P-0312, N-cyclopropyl-5-[3-[3-[[ethyl(methyl)sulfamoyl]amino]-2,6-difluoro-benzoyl]-1H-pyrrolo[2,3-b]pyridin-5-yl]pyridine-2-carboxamide]: the IC50 in the test with COLO205 and in the test with A375 was below 1 µM in each case. `CN(C)S(=O)(=O)Nc1cccc(C(=O)c2c[nH]c3ncc(-c4ccc(C(C)(C)O)cc4)cc23)c1F` [Compound P-0103, 3-[3-(dimethylsulfamoylamino)-2-fluoro-benzoyl]-5-[4-(1-hydroxy-1-methyl-ethyl)phenyl]-1H-pyrrolo[2,3-b]pyridine]: the IC50 in the test on COLO205 and in the test on A375 was below 1 µM in each case. Consider `CCOC(=O)C1CCCN1S(=O)(=O)Nc1cccc(C(=O)c2c[nH]c3ncc(-c4cnc(OC)nc4)cc23)c1F` (stereo not shown) [Compound P-0257, ethyl 1-[[2-fluoro-3-[5-(2-methoxypyrimidin-5-yl)-1H-pyrrolo[2,3-b]pyridine-3-carbonyl]phenyl]sulfamoyl]pyrrolidine-2-carboxylate], for which the IC50 in the test with COLO205 was above 1 µM. Regarding `O=C(c1c(F)ccc(NS(=O)(=O)N2CCCC2)c1F)c1c[nH]c2ncc(I)cc12` [Compound P-0024], the results for the IC50 with COLO205 and with A375 were above 1 µM and below 1 µM, respectively. In the case of `CCN(C)S(=O)(=O)Nc1cccc(C(=O)c2c[nH]c3ncc(-c4cccnc4)cc23)c1F` [Compound P-0032], the half-inhibitory concentration (IC50) with COLO205 and in the test with A375 was below 1 µM in each case.

Turning to `CCN(C)S(=O)(=O)Nc1ccc(F)c(C(=O)c2c[nH]c3ncc(-c4cccc(N(C)C)c4)cc23)c1F` [Compound P-0302, 5-[3-(dimethylamino)phenyl]-3-[3-[[ethyl(methyl)sulfamoyl]amino]-2,6-difluoro-benzoyl]-1H-pyrrolo[2,3-b]pyridine], the IC50 with COLO205 and in the test with A375 was below 1 µM in each case.

For the compound `COC(=O)CCS(=O)(=O)Nc1cccc(C(=O)c2c[nH]c3ncc(-c4cnc(OC)nc4)cc23)c1F` [Compound P-0066, methyl 3-[[2-fluoro-3-[5-(2-methoxypyrimidin-5-yl)-1H-pyrrolo[2,3-b]pyridine-3-carbonyl]phenyl]sulfamoyl]propanoate], the IC50 in the test on COLO205 and in the test on A375 was below 1 µM each time.

Regarding `CCN(C)S(=O)(=O)Nc1cccc(C(=O)c2c[nH]c3ncc(-c4ccccc4)cc23)c1F` [Compound P-0036, 3-[3-[[ethyl(methyl)sulfamoyl]amino]-2-fluoro-benzoyl]-5-phenyl-1H-pyrrolo[2,3-b]pyridine], the IC50 in the test with COLO205 is above 1 µM; with A375, below 1 µM.

`O=C(c1c(F)ccc(NS(=O)(=O)N2CCCC2)c1F)c1c[nH]c2ncc(-c3ccnc(OC4CCC4)c3)cc12` [Compound P-0286, N-[3-[5-[2-(cyclobutoxy)-4-pyridyl]-1H-pyrrolo[2,3-b]pyridine-3-carbonyl]-2,4-difluoro-phenyl]pyrrolidine-1-sulfonamide]: the half-maximal inhibitory concentration (IC50) in the test with COLO205 is below 1 µM; with A375, above 1 µM. As to `CCN(C)S(=O)(=O)Nc1cccc(C(=O)c2c[nH]c3ncc(-c4cncc(C#N)c4)cc23)c1F` [Compound P-0101, 5-(5-cyano-3-pyridyl)-3-[3-[[ethyl(methyl)sulfamoyl]amino]-2-fluoro-benzoyl]-1H-pyrrolo[2,3-b]pyridine], the IC50 in the test on A375 was below 1 µM. For the compound `CCN(C)S(=O)(=O)Nc1cccc(C(=O)c2c[nH]c3ncc(-c4ccc(C5CC5)nc4)cc23)c1F` [Compound P-0087, 5-(6-cyclopropyl-3-pyridyl)-3-[3-[[ethyl(methyl)sulfamoyl]amino]-2-fluoro-benzoyl]-1H-pyrrolo[2,3-b]pyridine], the IC50 with COLO205 and with A375 was below 1 µM in each case.

As for `CCN(C)S(=O)(=O)Nc1cccc(C(=O)c2c[nH]c3ncc(-c4cnc(N5CCCC5)nc4)cc23)c1F` [Compound P-0108, 3-[3-[[ethyl(methyl)sulfamoyl]amino]-2-fluoro-benzoyl]-5-(2-pyrrolidin-1-ylpyrimidin-5-yl)-1H-pyrrolo[2,3-b]pyridine], the figures for the 50% inhibitory concentration (IC50) in the test with COLO205 and with A375 were above 1 µM and below 1 µM, respectively.

For `CCN(C)S(=O)(=O)Nc1cccc(C(=O)c2c[nH]c3ncc(-c4ccc(C5(C#N)CC5)cc4)cc23)c1F` [Compound P-0061, 5-[4-(1-cyanocyclopropyl)phenyl]-3-[3-[[ethyl(methyl)sulfamoyl]amino]-2-fluoro-benzoyl]-1H-pyrrolo[2,3-b]pyridine], the half-maximal inhibitory concentration (IC50) in the test with COLO205 and in the test with A375 was below 1 µM in each case. On to `CN(C)S(=O)(=O)Nc1cccc(C(=O)c2c[nH]c3ncc(-c4cnc(C#N)nc4)cc23)c1F` [Compound P-0096, 5-(2-cyanopyrimidin-5-yl)-3-[3-(dimethylsulfamoylamino)-2-fluoro-benzoyl]-1H-pyrrolo[2,3-b]pyridine], for which the concentration for half-maximal inhibition (IC50) in the test on COLO205 and in the test on A375 was below 1 µM in each case.

Consider `CCN(C)S(=O)(=O)Nc1ccc(F)c(C(=O)c2c[nH]c3ncc(-c4ccc(C#N)cc4)cc23)c1F` [Compound P-0300, 5-(4-cyanophenyl)-3-[3-[[ethyl(methyl)sulfamoyl]amino]-2,6-difluoro-benzoyl]-1H-pyrrolo[2,3-b]pyridine], for which the results for the IC50 with COLO205 and in the test on A375 were above 1 µM and below 1 µM, respectively.

In the case of `Cc1ccc(-c2cnc3[nH]cc(C(=O)c4cccc(NS(=O)(=O)N(C)C)c4F)c3c2)cn1` [Compound P-0029], the IC50 with COLO205 and in the test on A375 was below 1 µM in each case. As for `CCN(C)S(=O)(=O)Nc1ccc(F)c(C(=O)c2c[nH]c3ncc(-c4cnc(N5CCN(C(=O)OC(C)(C)C)CC5)nc4)cc23)c1F` [Compound P-0264, tert-butyl 4-[5-[3-[3-[[ethyl(methyl)sulfamoyl]amino]-2,6-difluoro-benzoyl]-1H-pyrrolo[2,3-b]pyridin-5-yl]pyrimidin-2-yl]piperazine-1-carboxylate], the half-maximal inhibitory concentration (IC50) with COLO205 and in the test with A375 was below 1 µM in each case. In the case of `CCOc1cnc(-c2cnc3[nH]cc(C(=O)c4c(F)ccc(NS(=O)(=O)N(C)C)c4F)c3c2)cn1` [Compound P-0244, 3-[3-(dimethylsulfamoylamino)-2,6-difluoro-benzoyl]-5-(5-ethoxypyrazin-2-yl)-1H-pyrrolo[2,3-b]pyridine], the IC50 in the test on COLO205 and with A375 was above 1 µM throughout. Consider `CCCN(C)S(=O)(=O)Nc1ccc(F)c(C(=O)c2c[nH]c3ncc(-c4ccc(C5(C#N)CC5)cc4)cc23)c1F` [Compound P-0079, 5-[4-(1-cyanocyclopropyl)phenyl]-3-[2,6-difluoro-3-[[methyl(propyl)sulfamoyl]amino]benzoyl]-1H-pyrrolo[2,3-b]pyridine], for which the half-maximal inhibitory concentration (IC50) with COLO205 and in the test with A375 was below 1 µM each time. Consider `O=C(c1c(F)ccc(NS(=O)(=O)N2CCC(F)(F)C2)c1F)c1c[nH]c2ncc(-c3cnc(C4CC4)nc3)cc12` [Compound P-0288, N-[3-[5-(2-cyclopropylpyrimidin-5-yl)-1H-pyrrolo[2,3-b]pyridine-3-carbonyl]-2,4-difluoro-phenyl]-3,3-difluoro-pyrrolidine-1-sulfonamide], for which the IC50 in the test on COLO205 and with A375 was below 1 µM in each case. The compound `CC1(C)CCN(S(=O)(=O)Nc2cccc(C(=O)c3c[nH]c4ncc(-c5cnc(C6CC6)nc5)cc34)c2F)C1` [Compound P-0246, N-[3-[5-(2-cyclopropylpyrimidin-5-yl)-1H-pyrrolo[2,3-b]pyridine-3-carbonyl]-2-fluoro-phenyl]-3,3-dimethyl-pyrrolidine-1-sulfonamide] registered an IC50 with A375 above 1 µM. Still for that read-out and setting: the result for `COc1ncc(-c2cnc3[nH]cc(C(=O)c4cccc(NS(=O)(=O)N5CCC(OCc6ccccc6)C5)c4F)c3c2)cn1` (stereo not shown) [Compound P-0041, 3-benzyloxy-N-[2-fluoro-3-[5-(2-methoxypyrimidin-5-yl)-1H-pyrrolo[2,3-b]pyridine-3-carbonyl]phenyl]pyrrolidine-1-sulfonamide] reads above 1 µM.
